Results as given in patent US8987193B2, “Nisin derivatives and the use thereof” (University College Cork—National University of Ireland, Cork, priority 2008, dated 2015).
Entries after “also recorded” stand apart in the source; their conditions may differ. Ends that are not written are not given here.

Experiments:
S. aureus CBC4 = experiment: Deferred antagonism assay; type: cell-based; parameters: key: + = Enhanced bioactivity relative to control; − = Bioactivity equal to or less than control; NA = no activity evident; conditions: XX and XXX hinge mutant producers
Protocol: (§1) Deferred antagonism assays were performed by replicating strains on GM17 or GM17 x-gal agar plates and allowing them to grow overnight before overlaying with either GM17/BHI/TS/MH agar (0.75% w/v agar) seeded with the appropriate indicator strain. Zone size was calculated as the diameter of the zone of clearing minus the diameter of bacterial growth (5 mm) For higher throughput screening of N20PXX, XM21VX, XXK22T and XXX banks deferred antagonism assays were performed by replicating strains using a 96 pin replicator (Boekel) or spotting 5 μl of a fresh overnight culture on GM17 agar plates and allowing them to grow overnight. […] Additional sets of indicators were employed to further assess/reassess the bioactivity of a number of strains. […] For well-diffusion assays molten agar was cooled to 48° C. and seeded with the appropriate indicator strain. The inoculated medium was rapidly transferred into sterile Petri plates in 50 ml volumes, allowed to solidify and dried. Wells (4.6 mm in diameter) were then made in the seeded plates. Purified nisin and mutant nisins were resuspended in 0.005% acetic acid, serially diluted, 50 μl volumes were dispensed into the aforementioned wells and the plates incubated at 37° C. overnight. Bioactivity was expressed as arbitrary units/ml (AU/ml) and calculated as the reciprocal of the highest dilution that gave a definite zone multiplied by the conversion factor (i.e. 20 when 50 μl was used) (Ryan et al., 1996).
(§2) As a consequence of the enhanced activities of K22T and K22S, a more in-depth investigation of this region was carried out. Saturation mutagenesis was undertaken to create a bank of nisin A hinge derivatives containing the vast majority of possible amino acid substitutions for each position. Although pPTPL was used successfully for random mutagenesis, its relatively large size of approx 10.5 kb was considered unsuitable for the complete plasmid PCR amplification approach utilized for saturation mutagenesis. A smaller (approx 6 kb) E. coli-L. lactis shuttle vector pCI372 was considered to be potentially more useful. Its suitability with respect to the in trans expression of nisA was confirmed by the ability of pDFO5 to restore the nisin positive phenotype. Saturation mutagenesis was performed on each codon using pDF05 and oligonucleotides (Table 5) that replace the specific codon with a NNK triplet, potentially encoding all 20 standard amino acids. Following complete plasmid amplification and introduction into the intermediate Top10 host, sequence analysis of a pooled bank of pDF05 derivatives confirmed randomization. Introduction of these variants into L. lactis NZ9800 allowed the expression of mutant nisin A peptides for further analysis. […] 46 residue conversions were isolated. All strains, regardless of bioactivity, were assessed with a view to comprehensively assessing the consequences of each individual hinge alteration.

L. lactis CBC7 = experiment: Deferred antagonism assay; type: cell-based; parameters: key: + = Enhanced bioactivity relative to control; − = Bioactivity equal to or less than control; NA = no activity evident; conditions: XX and XXX hinge mutant producers
Protocol: as §1, §2

L. lactis CBC8 = experiment: Deferred antagonism assay; type: cell-based; parameters: key: + = Enhanced bioactivity relative to control; − = Bioactivity equal to or less than control; NA = no activity evident; conditions: XX and XXX hinge mutant producers
Protocol: as §1, §2

L. plantarum CBC6 = experiment: Deferred antagonism assay; type: cell-based, Lactobacillus plantarum; parameters: key: + = Enhanced bioactivity relative to control; − = Bioactivity equal to or less than control; NA = no activity evident; conditions: XX and XXX hinge mutant producers
Protocol: as §1, §2

L. monocytogenes CBC2 = experiment: Deferred antagonism assay; type: cell-based, Listeria monocytogenes; parameters: key: + = Enhanced bioactivity relative to control; − = Bioactivity equal to or less than control; NA = no activity evident; conditions: L. mono CBC2; XX and XXX hinge mutant producers
Protocol: as §1, §2

L. monocytogenes CBC1 = experiment: Deferred antagonism assay; type: cell-based, Listeria monocytogenes; parameters: key: + = Enhanced bioactivity relative to control; − = Bioactivity equal to or less than control; NA = no activity evident; conditions: L. mono CBC1; XX and XXX hinge mutant producers
Protocol: as §1, §2

L. monocytogenes CBC3 = experiment: Deferred antagonism assay; type: cell-based, Listeria monocytogenes; parameters: key: + = Enhanced bioactivity relative to control; − = Bioactivity equal to or less than control; NA = no activity evident; conditions: L. mono CBC3; XX and XXX hinge mutant producers
Protocol: as §1, §2

indicator strains = experiment: Deferred antagonism assays, various indicator strains (summary); type: cell-based; conditions: for Target strain against which the hinge mutant was selected for enhanced bioactivity: XX and XXX banks, L. lactis HP*: enhanced or equal; for Target strain against which the hinge mutant was selected for enhanced bioactivity / Strain(s) against which the derivative (producing strain) displays enhanced bioactivity: relative to nisin A-producing control; for number of targets with enhanced activity: of the 8 additional targets tested; for Strain(s) against which the derivative (producing strain) displays enhanced bioactivity: value = strains listed
Protocol: as §1

Substance	bioactivity relative to a nisin A-producing control (S. aureus CBC4)	bioactivity relative to a nisin A-producing control (L. lactis CBC7)	bioactivity relative to a nisin A-producing control (L. lactis CBC8)	bioactivity relative to a nisin A-producing control (L. plantarum CBC6)	bioactivity relative to a nisin A-producing control (L. monocytogenes CBC2)	bioactivity relative to a nisin A-producing control (L. monocytogenes CBC1)	bioactivity relative to a nisin A-producing control (L. monocytogenes CBC3)	Target strain against which the hinge mutant was selected for enhanced bioactivity (indicator strains)	number of targets with enhanced activity (indicator strains)	Strain(s) against which the derivative (producing strain) displays enhanced bioactivity (indicator strains)	number of strains with bioactivity (indicator strains; of the 16 strains tested)
NisinA GLA (ITSISLCTPGCKTGALMGCGLATATCHCSIHVSK; cysteine pairing not given here; also: lantibiotic nisin-A; UniProt P13068 24-57, looked up, variant N20G M21L K22A) [nisin A hinge variant GLA (i.e. N20G, M21L, K22A)]	−	−	−	−	−	−	−	B. cereus UCC1	1	B. cereus UCC1	
NisinA GVK	+	+	−	−	−	−	+	C. sporogenes UCC1	3	C. sporogenes UCC1, L. monocytogenes CBC3, S. aureus CBC4 and L. lactis CBC7 and C. sporogenes UCC1, L. mono CBC3, S. aureus CBC4, L. lactis and CBC7	
NisinA HLT (ITSISLCTPGCKTGALMGCHLTTATCHCSIHVSK; cysteine pairing not given here; also: lantibiotic nisin-A; UniProt P13068 24-57, looked up, variant N20H M21L K22T) [nisin A hinge variant HLT (i.e. N20H, M21L, K22T)]	+	+	−	−	+	−	+	Strep. agalactiae ATCC 13813	4	S. agalactiae ATCC13813, L. monocytogenes CBC2 and CBC3, S. aureus CBC4 and L. lactis CBC7; also recorded: S. agalactiae ATCC13813, L. mono CBC2, CBC3, S. aureus	
NisinA PAA	+	−	−	−	−	−	−	C. sporogenes UCC1		C. sporogenes UCC1 and S. aureus CBC4	
NisinA PAK	+	−	−	−	−	−	−	Staph. aureus RF122/L. lactis HP*		S. aureus RF122 , CBC4 , NCDO1499 and DPC5246, L. lactis MG1363 , and L. monocytogenes 10403S and EGDe; also recorded: DPC5246, NCDO1499, L. mono 10403S and EGDe	7
NisinA PAL (ITSISLCTPGCKTGALMGCPALTATCHCSIHVSK; not fully specified (bridges); also: lantibiotic nisin-A: lanthionine rings and dehydrated residues, places not given here; UniProt P13068 24-57, looked up, variant N20P M21A K22L) [nisin A hinge variant PAL (i.e. N20P, M21A, K22L)]	+	+	+	−	+	−	−	C. sporogenes UCC1	4	C. sporogenes UCC1, S. aureus CBC4, L. lactis CBC7 and CBC8, L. monocytogenes CBC2 and an additional 10 L. monocytogenes and 2 L. innocua; also recorded: C. sporogenes UCC1, L. mono CBC2, S. aureus CBC4, L. lactis	
NisinA PAT (ITSISLCTPGCKTGALMGCPATTATCHCSIHVSK; not fully specified (bridges); also: lantibiotic nisin-A: lanthionine rings and dehydrated residues, places not given here; UniProt P13068 24-57, looked up, variant N20P M21A K22T) [nisin A hinge variant PAT (i.e. N20P, M21A, K22T)]	−	−	−	−	−	−	−	Strep. agalactiae ATCC 13813		S. agalactiae ATCC13813	
NisinA PIA	−	−	−	−	−	−	−	Staph. aureus RF122		B. cereus UCC1	
NisinA PIM	−	−	−	−	−	−	−	Staph. aureus RF122		B. cereus UCC1	
